This test concerns the target human GPR120 (Homo sapiens (Human), UniProt Q5NUL3). Put plainly: GPR120 pERK AlphaScreen SureFire Assay (human GPR120 pERK assay). The test is classed as cell-based. The following applies: CHO cells stably transfected with short form of human GPR120. Put shortly:
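CHOA12 cells stably expressing short-form human GPR120, serum-starved 2 h, then stimulated 7 min at 37° C with compound (33.33 μM to 0.56 nM, 11-point). Phospho-ERK1/2 read by AlphaScreen SureFire in lysates. Activation scaled between DMSO and 50 μM linolenic acid; EC50 from a 4-parameter logistic fit.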

Molecules are shown by their SMILES.

Chain of human GPR120 (Q5NUL3 whole entry): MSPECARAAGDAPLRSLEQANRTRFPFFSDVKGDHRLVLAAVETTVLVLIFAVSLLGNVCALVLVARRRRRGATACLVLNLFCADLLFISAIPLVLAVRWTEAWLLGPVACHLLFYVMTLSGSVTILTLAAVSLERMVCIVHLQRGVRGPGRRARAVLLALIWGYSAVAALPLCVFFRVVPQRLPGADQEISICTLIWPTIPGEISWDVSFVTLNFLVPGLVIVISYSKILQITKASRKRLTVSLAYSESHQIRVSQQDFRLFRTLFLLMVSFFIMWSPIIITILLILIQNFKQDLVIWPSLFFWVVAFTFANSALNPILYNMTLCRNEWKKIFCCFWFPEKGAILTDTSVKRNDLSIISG

Regarding `CC(C)COc1cc(F)cc(-c2ccc(OC[C@@H]3C[C@H]3C(=O)O)cc2)c1` (racemic) [Example 72, Trans-2-(((3′-fluoro-5′-isobutoxy-[1,1′-biphenyl]-4-yl)oxy)methyl) cyclopropanecarboxylic acid], it took 1550 nM to reach a half-maximal effect (EC50).
`CC(C)Oc1ccc(F)c(-c2ccc(OC[C@@H]3C[C@H]3C(=O)O)c(C(F)(F)F)c2)c1` (racemic) [Example 88, Trans-2-(((2′-fluoro-5′-isopropoxy-3-(trifluoromethyl)-[1,1′-biphenyl]-4-yl)oxy)methyl) cyclopropanecarboxylic acid] came in with an EC50 of 180 nM.
The figure for `O=C(O)[C@H]1CC1COc1ccc(-c2cc(Oc3cccc(F)c3)ccc2F)cc1F` (stereo partly shown) [Example 98] is 200 nM; for `O=C(O)[C@@H]1C[C@H]1COc1ccc(-c2cc(OCC3CC3)ccc2F)cc1` (racemic) [Example 95, Trans-2-(((5′-(cyclopropylmethoxy)-2′-fluoro-[1,1′-biphenyl]-4-yl)oxy)methyl)cyclopropanecarboxylic acid] it is 370 nM; for `CC1(C)Cc2cc(Cl)cc(-c3ccc(CC[C@@H]4C[C@H]4C(=O)O)cc3)c2O1` (single isomer, unassigned) [Example 26] it is 1720 nM.
Molecule `CCSc1cccc(-c2ccc(CC[C@@H]3C[C@H]3C(=O)O)cc2)c1` (racemic) [Example 38, Trans-2-(2-(3′-(ethylthio)-[1,1′-biphenyl]-4-yl)ethyl)cyclopropanecarboxylic acid] gave an EC50 of 3240 nM.
Next, `O=C(O)[C@@H]1C[C@H]1COc1ccc(-c2cc(C(F)(F)F)ccc2F)cc1` (racemic) [Example 123, Trans-2-(((2′-fluoro-5′-(trifluoromethyl)-[1,1′-biphenyl]-4-yl)oxy)methyl)cyclopropanecarboxylic acid]: 680 nM.
The figure for `CC(C)Oc1cc(Cl)cc(-c2ccc(OC[C@@H]3C[C@H]3C(=O)O)c(F)c2)c1` (single isomer, unassigned) [Example 13] is 640 nM; for `CC1(C)Cc2c(ccc(F)c2-c2ccc(OCC3CC3C(=O)O)cc2)O1` (stereo not shown) [Example 22, 2-((4-(5-Fluoro-2,2-dimethyl-2,3-dihydrobenzofuran-4-yl)phenoxy)methyl) cyclopropanecarboxylic acid] it is 1250 nM; for `Cc1nn(Cc2ccc(Cl)cc2)cc1-c1ccc(OC[C@@H]2C[C@H]2C(=O)O)cc1` (racemic) [Example 85, Trans-2-((4-(1-(4-chlorobenzyl)-3-methyl-1H-pyrazol-4-yl)phenoxy)methyl) cyclopropanecarboxylic acid] it is 3810 nM.
Next, `O=C(O)[C@@H]1C[C@H]1CCc1ccc(-c2cccc(-n3cccc3)c2)cc1` (racemic) [Example 129, Trans-2-(2-(3′-(1H-pyrrol-1-yl)-[1,1′-biphenyl]-4-yl)ethyl) cyclopropanecarboxylic acid]: 1580 nM.
The molecule `CC(C)Oc1ccc(F)c(-c2ccc(CC[C@H]3C[C@H]3C(=O)O)cc2)c1` (single isomer, unassigned) [Example 16] registered an EC50 of 420 nM.
Next, `Cc1ccc(Oc2cc(F)c(F)c(-c3ccc(OCC4CC4C(=O)O)c(F)c3)c2)cc1F` (single isomer, unassigned) [Example 109]: 260 nM; `CC(C)Oc1cc(F)c(F)c(-c2ccc(OC[C@@H]3C[C@H]3C(=O)O)c(F)c2)c1` (racemic) [Example 65, Trans-2-(((2′,3,3′-trifluoro-5′-isopropoxy-[1,1′-biphenyl]-4-yl)oxy)methyl)cyclopropanecarboxylic acid]: 330 nM; `CC(C)Oc1ccc(F)c(-c2ccc(OC[C@@H]3C[C@H]3C(=O)O)c(F)c2)c1` (single isomer, unassigned) [Example 63]: 180 nM.
Regarding `CC(C)Oc1ccc(Cl)c(-c2ccc(OC[C@@H]3C[C@H]3C(=O)O)cc2)c1` (racemic) [Example 119, Trans-2-(((2′-chloro-5′-isopropoxy-[1,1′-biphenyl]-4-yl)oxy)methyl) cyclopropanecarboxylic acid], the EC50 was found to be 510 nM.
Next, `COc1ccc(OC(F)(F)F)cc1-c1ccc(OC[C@@H]2C[C@H]2C(=O)O)cc1` (racemic) [Example 71, Trans-2-(((2′-methoxy-5′-(trifluoromethoxy)-[1,1′-biphenyl]-4-yl)oxy)methyl)cyclopropanecarboxylic acid]: 1430 nM.
The molecule `CC(C)Oc1ccc(F)c(-c2ccc(CC[C@@H]3C[C@H]3C(=O)O)cc2)c1` (single isomer, unassigned) [Example 31] showed an EC50 of 640 nM.
Next, `Cc1ccc(Oc2cc(F)c(F)c(-c3ccc(OCC4CC4C(=O)O)c(F)c3)c2)cc1F` (racemic) [Example 107]: 310 nM.
In the case of `Cc1ccc(Oc2ccc(F)c(-c3ccc(OC[C@@H]4C[C@H]4C(=O)O)c(F)c3)c2)cn1` (racemic) [Example 103, Trans-2-(((2′,3-difluoro-5′-((6-methylpyridin-3-yl)oxy)-[1,1′-biphenyl]-4-yl)oxy)methyl)cyclopropanecarboxylic acid], the EC50 is 170 nM.
Next, `O=C(O)C1CC1COc1ccc(-c2cc(OC3CCCC3)ccc2F)cc1` (racemic) [Example 50, Trans-2-(((5′-cyclopentyloxy)-2′-fluoro-[1,1′-biphenyl]-4-yl)oxy)methyl) cyclopropanecarboxylic acid]: 260 nM.
Next, `Cc1ccc(Oc2ccc(F)c(-c3ccc(OCC4CC4C(=O)O)c(F)c3)c2)cc1F` (racemic) [Example 100, Trans-2-(((2′,3-difluoro-5′-(3-fluoro-4-methylphenoxy)-[1,1′-biphenyl]-4-yl)oxy)methyl)cyclopropanecarboxylic acid]: 260 nM.
The figure for `CC(C)Oc1ccc(F)c(-c2ccc(CC[C@]3(F)C[C@H]3C(=O)O)cc2)c1` (racemic) [Example 39, Cis-2-fluoro-2-(2-(2′-fluoro-5′-isopropoxy-[1,1′-biphenyl]-4-yl)ethyl) cyclopropanecarboxylic acid] is 2020 nM; for `CC(C)Oc1ccc(F)c(-c2ccc(CO[C@@H]3C[C@H]3C(=O)O)cc2)c1` (relative stereo) [Example 37, Trans-2-((2′-fluoro-5′-isopropoxy-[1,1′-biphenyl]-4-yl)methoxy)cyclopropanecarboxylic acid] it is 2650 nM.
The molecule `O=C(O)[C@@H]1C[C@H]1COc1ccc(-c2cc(Oc3cccc(F)c3)ccc2F)cc1F` (relative stereo) [Example 96, Trans-2-(((2′,3-difluoro-5′-(3-fluorophenoxy)-[1,1′-biphenyl]-4-yl)oxy)methyl) cyclopropanecarboxylic acid] came in with an EC50 of 180 nM.
Next, `CC(C)Oc1cc(-c2ccc(OC[C@@H]3C[C@H]3C(=O)O)cc2)cc(C(F)(F)F)c1` (racemic) [Example 47, Trans-2-(((3′-isopropoxy-5′-(trifluoromethyl)-[1,1′-biphenyl]-4-yl)oxy)methyl)cyclopropanecarboxylic acid]: 2040 nM; `CC(C)Oc1ccc(F)c(-c2ccc(OC[C@@H]3C[C@H]3C(=O)O)cc2)c1` (racemic) [Example 1, Trans-2-(((2′-fluoro-5′-isopropoxy-[1,1′-biphenyl]-4-yl)oxy)methyl) cyclopropanecarboxylic acid]: 370 nM; `O=C(O)[C@@H]1C[C@@H]1COc1ccc(-c2cc(Oc3ccccc3)ccc2F)cc1` (racemic) [Example 4, Cis-2-(((2′-fluoro-5′-phenoxy-[1,1′-biphenyl]-4-yl)oxy)methyl)cyclopropanecarboxylic acid]: 470 nM.
Next, `CC(C)Oc1ccc(F)c(-c2ccc(OC[C@H]3C[C@@H]3C(=O)O)cc2)c1` (single isomer, unassigned) [Example 2]: 250 nM.
Next, `COc1ncc(Cl)cc1-c1ccc(CC[C@@H]2C[C@H]2C(=O)O)cc1` (racemic) [Example 78, Trans-2-(4-(5-chloro-2-methoxypyridin-3-yl)phenethyl) cyclopropanecarboxylic acid]: 6090 nM.
`CC(C)Oc1ccc(F)c(-c2ccc(OC[C@H]3C[C@@H]3C(=O)O)c(F)c2)c1` (single isomer, unassigned) [Example 64] showed an EC50 of 290 nM.
In turn, `CC(C)Oc1ccc(F)c(-c2ccc(C[C@H]3C[C@@H]3CC(=O)O)cc2)c1` (single isomer, unassigned) [Example 36, Trans-(2-((2′-fluoro-5′-isopropoxy-[1,1′-biphenyl]-4-yl)methyl)cyclopropyl)acetic acid] returned an EC50 of 60 nM.
In turn, `CC1(C)Cc2c(cc(F)cc2-c2ccc(OC[C@@H]3C[C@H]3C(=O)O)cc2)O1` (racemic) [Example 20, Trans-2-((4-(6-fluoro-2,2-dimethyl-2,3-dihydrobenzofuran-4-yl)phenoxy)methyl) cyclopropanecarboxylic acid] gave an EC50 of 990 nM.
Next, `CC(C)Oc1ccc(F)c(-c2ccc(OC[C@@H]3C[C@H]3C(=O)O)c(CC=O)c2)c1` (racemic) [Example 90, Trans-2-(((2′-fluoro-5′-isopropoxy-3-(2-oxoethyl)-[1,1′-biphenyl]-4-yl)oxy)methyl) cyclopropanecarboxylic acid]: 930 nM; `CC(C)Oc1ccc(F)c(-c2ccc(OC[C@@H]3C[C@H]3C(=O)O)c(Cl)c2)c1` (racemic) [Example 45, Trans-2-(((3-chloro-2′-fluoro-5′-isopropoxy-[1,1′-biphenyl]-4-yl)oxy)methyl)cyclopropanecarboxylic acid]: 220 nM; `CC(C)Oc1cccc(-c2ccc(CC[C@@H]3C[C@H]3C(=O)O)cc2)c1` (racemic) [Example 131, Trans-2-(2-(3′-isopropoxy-[1,1′-biphenyl]-4-yl)ethyl) cyclopropanecarboxylic acid]: 920 nM.
The figure for `O=C(O)[C@@H]1C[C@H]1CCc1ccc(-c2cccc(-n3cccn3)c2)cc1` (racemic) [Example 128, Trans-2-(2-(3′-(1H-pyrazol-1-yl)-[1,1′-biphenyl]-4-yl)ethyl) cyclopropanecarboxylic acid] is 700 nM.
